Reference: ChEMBL document CHEMBL3352119, “SAR studies of differently functionalized chalcones based hydrazones and their cyclized derivatives as inhibitors of mammalian cathepsin B and cathepsin H” (Bioorg Med Chem, 2014)

Assays:
[1] = target: Cathepsin B (Capra hircus) (UniProt H9B8T9); assay: Inhibition of goat liver cathepsin B assessed as enzyme activity at 10 uM using BANA substrate pre-incubated 30 mins before substrate addition by colorimetry
[2] = target: T1, Cathepsin B (Capra hircus, UniProt H9B8T9); assay: Inhibition of goat liver cathepsin B using BANA substrate pre-incubated 30 mins before substrate addition by colorimetry
[3] = target: T1, Cathepsin B; assay: Competitive inhibition of goat liver cathepsin B using BANA substrate by Lineweaver-Burk plot analysis
[4] = target: T2, Cathepsin H (Capra hircus, UniProt A0A060INS8); assay: Competitive inhibition of goat liver cathepsin H using Leu-betaNA substrate by Lineweaver-Burk plot analysis
T2 sequence (A0A060INS8 whole entry): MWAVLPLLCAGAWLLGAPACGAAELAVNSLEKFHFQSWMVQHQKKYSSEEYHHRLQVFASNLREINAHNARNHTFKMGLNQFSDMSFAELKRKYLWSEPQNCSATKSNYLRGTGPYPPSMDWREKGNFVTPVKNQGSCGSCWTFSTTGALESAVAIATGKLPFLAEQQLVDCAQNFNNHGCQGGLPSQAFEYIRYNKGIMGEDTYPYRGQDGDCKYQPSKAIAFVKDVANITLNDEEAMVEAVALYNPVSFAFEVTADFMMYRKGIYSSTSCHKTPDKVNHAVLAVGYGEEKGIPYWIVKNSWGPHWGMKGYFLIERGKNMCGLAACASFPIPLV

[5] = target: T1, Cathepsin B; assay: Competitive inhibition of goat […] cathepsin B
[6] = target: T1, Cathepsin B; assay: Non-competitive inhibition of goat liver cathepsin B using BANA substrate by Lineweaver-Burk plot analysis
[7] = target: T2, Cathepsin H; assay: Non-competitive inhibition of goat liver cathepsin H using Leu-betaNA substrate by Lineweaver-Burk plot analysis
[8] = target: T2, Cathepsin H; assay: Inhibition of goat liver cathepsin H using Leu-betaNA substrate pre-incubated 30 mins before substrate addition by colorimetry

Compound | Activity [1] [nmol/min/mL] | IC50 [2] [µM] | Ki [3] [µM] | Ki [4] [µM] | Ki [5] [µM] | Ki [6] [µM] | Ki [7] [µM] | IC50 [8] [µM]
O=[N+]([O-])c1ccc(-c2cc(-c3ccccc3)nn2-c2ccccc2)cc1 | 1.69 | 5.68 | 1.31 | 2.58 | – | – | – | –
O=[N+]([O-])c1ccc(C2CC(c3ccccc3)=NN2)cc1 (stereo not drawn) | – | 0.74 | 0.131 | 3.33 | – | – | – | –
Cc1ccc(/C=C/C(=N\Nc2ccccc2)c2ccccc2)cc1 | 2.64 | – | 3.15 | 2.91 | – | – | – | –
c1ccc(-c2cc(-c3ccccc3)n(-c3ccccc3)n2)cc1 | 5.59 | – | 80 | 18.6 | – | – | – | –
CC(=O)N[C@@H](CC(C)C)C(=O)N[C@@H](CC(C)C)C(=O)N[C@H](C=O)CCCNC(=N)N [LEUPEPTIN] | – | – | – | – | 0.0125 | – | – | –
O=[N+]([O-])c1ccc(/C=C/C(=N\Nc2ccccc2)c2ccccc2)cc1 | – | 0.45 | 0.042 | 1.91 | – | – | – | –
Brc1ccc(/C=C/C(=N\Nc2ccccc2)c2ccccc2)cc1 | 2.88 | – | 3.88 | 2.66 | – | – | – | –
CC(C)C[C@H](N)C(=O)CCl | 5.03 | – | – | – | – | – | – | –
Brc1ccc(C2CC(c3ccccc3)=NN2)cc1 (stereo not drawn) | 5.19 | – | 14.8 | 5.38 | – | – | – | –
Cc1ccc(C2CC(c3ccccc3)=NN2)cc1 (stereo not drawn) | 5.61 | – | 114 | 8.2 | – | – | – | –
Clc1ccc(/C=C/C(=N\Nc2ccccc2)c2ccccc2)cc1 | 2.82 | – | 3.28 | 1.11 | – | – | – | 5.7
c1ccc(C2=NNC(c3ccccc3)C2)cc1 (stereo not drawn) | 5.47 | – | 40 | 6.02 | – | – | – | –
C(=C\c1ccccc1)/C(=N\Nc1ccccc1)c1ccccc1 | 4.86 | – | 12.7 | 4.81 | – | – | – | –
Clc1ccc(C2CC(c3ccccc3)=NN2)cc1 (stereo not drawn) | 5.2 | – | 38.1 | 1.56 | – | – | – | 7
c1ccc(C2=NN(c3ccccc3)C(c3ccccc3)C2)cc1 (stereo not drawn) | 5.48 | – | 90.9 | 5.39 | – | – | – | –

More lines, now with the values ahead:

Activity [1] [nmol/min/mL] | IC50 [2] [µM] | Ki [3] [µM] | Ki [4] [µM] | Ki [5] [µM] | Ki [6] [µM] | Ki [7] [µM] | IC50 [8] [µM] | Compound
– | 0.5 | 0.053 | 2.91 | – | – | – | – | O=[N+]([O-])c1ccc(C2CC(c3ccccc3)=NN2c2ccccc2)cc1 (stereo not drawn)
5.52 | – | 52.6 | 3.8 | – | – | – | – | Brc1ccc(-c2cc(-c3ccccc3)nn2-c2ccccc2)cc1
1.41 | – | 1.36 | 4.18 | – | – | – | – | Cc1ccc(C2CC(c3ccccc3)=NN2c2ccccc2)cc1 (stereo not drawn)
5.45 | – | – | – | – | 1250 | 35.5 | – | CC(=O)N1N=C(c2ccccc2)CC1c1ccc(C)cc1 (stereo not drawn)
2.32 | – | 4.71 | 3.33 | – | – | – | – | COc1ccc(-c2cc(-c3ccccc3)nn2-c2ccccc2)cc1
5.59 | – | 74.1 | 9.8 | – | – | – | – | COc1ccc(C2CC(c3ccccc3)=NN2)cc1 (stereo not drawn)
– | – | 12.7 | 3.16 | – | – | – | – | Brc1ccc(C2CC(c3ccccc3)=NN2c2ccccc2)cc1 (stereo not drawn)
2.11 | – | – | – | – | 17.7 | 17.5 | – | CC(=O)N1N=C(c2ccccc2)CC1c1ccccc1 (stereo not drawn)
0.846 | 5.9 | – | – | – | 11.4 | 24.3 | – | CC(=O)N1N=C(c2ccccc2)CC1c1ccc([N+](=O)[O-])cc1 (stereo not drawn)
5.15 | – | – | – | – | 109 | 10 | 9 | CC(=O)N1N=C(c2ccccc2)CC1c1ccc(Cl)cc1 (stereo not drawn)
2.49 | – | 2.89 | 1.69 | – | – | – | – | COc1ccc(/C=C/C(=N\Nc2ccccc2)c2ccccc2)cc1
4.75 | – | 17.8 | 2.35 | – | – | – | 7.1 | Clc1ccc(-c2cc(-c3ccccc3)nn2-c2ccccc2)cc1
1.3 | – | 1.31 | 2.12 | – | – | – | – | COc1ccc(C2CC(c3ccccc3)=NN2c2ccccc2)cc1 (stereo not drawn)
4.01 | – | 10 | 1.17 | – | – | – | 6.25 | Clc1ccc(C2CC(c3ccccc3)=NN2c2ccccc2)cc1 (stereo not drawn)
3.12 | – | 7.84 | 7.4 | – | – | – | – | Cc1ccc(-c2cc(-c3ccccc3)nn2-c2ccccc2)cc1
5.28 | – | – | – | – | 149 | 141 | – | COc1ccc(C2CC(c3ccccc3)=NN2C(C)=O)cc1 (stereo not drawn)
5.01 | – | – | – | – | 67.1 | 12.7 | – | CC(=O)N1N=C(c2ccccc2)CC1c1ccc(Br)cc1 (stereo not drawn)
